From US10676485B2, “Macrocyclic MCL-1 inhibitors and methods of use” (AbbVie Inc., priority 2017, dated 2020)
Like-named read-outs stand apart in the source and are kept apart here.

Columns and labels:
[1] = system: NCI-H929 human multiple myeloma tumor cell line; assay: NCI-H929 cell viability assay (CellTiter-Glo); assay type: cell-based; conditions: NCI-H929, read-out: H929 Viability IC50 (μM), 10% FBS, 24 hours of compound treatment
[2] = system: AMO-1 human multiple myeloma tumor cell line; assay: AMO-1 cell viability assay (CellTiter-Glo); assay type: cell-based; conditions: AMO1, read-out: AMO-1 Viability IC50 (μM), 10% FBS, 24 hours of compound treatment
Procedure: In one exemplary set of conditions, NCI-H929 or AMO-1 (ATCC. Manassas, Va.) were plated 4.000 cells per well in 384-well tissue culture plates (Corning. Corning, N.Y.) in a total volume of 25 μL RPMI tissue culture medium supplemented with 10% fetal bovine serum (Sigma-Aldrich, St. Louis, Mo.) and treated with a 3-fold serial dilution of the compounds of interest with a Labcyte Echo from a final concentration of 10 μM to 0.0005 μM. Each concentration was tested in duplicate at least 3 independent times. A luminescent signal proportional to the number of viable cells following 24 hours of compound treatment was determined using the CellTiter-Glo® Luminescent Cell Viability Assay according to the manufacturer's recommendations (Promega Corp., Madison, Wis.). The plates were read in a Perkin Elmer Envision using a Luminescence protocol. To generate dose response curves the data is normalized to percent viability by setting the averages of the staurosporine (10 uM) and DMSO only control wells to 0% and (00)% viability respectively. The IC50 values for the compounds are generated by fitting the normalized data with Accelrys Assay Explorer 3.3 to a sigmoidal curve model using linear regression.

[3] = target: GST-MCL-1 (Homo sapiens (Human), UniProt Q07820); assay: TR-FRET MCL-1 binding assay (competition with probe F-Bak)
Sequence of GST-MCL-1 (Q07820 whole entry): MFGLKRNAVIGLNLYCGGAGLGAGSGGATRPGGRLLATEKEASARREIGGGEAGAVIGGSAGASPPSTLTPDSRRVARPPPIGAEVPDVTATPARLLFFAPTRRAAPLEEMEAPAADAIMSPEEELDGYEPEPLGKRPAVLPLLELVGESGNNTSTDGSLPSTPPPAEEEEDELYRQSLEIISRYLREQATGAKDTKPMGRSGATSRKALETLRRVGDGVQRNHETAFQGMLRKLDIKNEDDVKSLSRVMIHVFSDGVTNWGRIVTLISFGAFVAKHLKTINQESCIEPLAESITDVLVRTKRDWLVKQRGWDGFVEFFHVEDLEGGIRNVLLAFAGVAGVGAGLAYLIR
Procedure: For the assay, an acoustic dispenser was used to prepare dilution series from 10 mM test compounds in 100% DMSO and directly transfer 160 nL into low volume 384-well assay plates. 8 μL of a protein/probe/antibody mix was then added to each well resulting in final concentrations listed below: Test compound: 11 three-fold dilutions beginning at 25 μM
The samples were then mixed on a shaker for 1 minute and incubated for an additional 2 hours at room temperature. For each assay plate, a probe/antibody and protein/antibody/probe mixture were included as a negative and a positive control, respectively. Fluorescence was measured on the Envision (Perkin Elmer) using a 340/35 nm excitation filter and 520/525 (F-Bak) and 495/510 nm (Tb-labeled anti-his antibody) emission filters. […] The TR-FRET assay can be performed in the presence of varying concentrations of human serum (HS) or fetal bovine serum (FBS). Compounds were tested both without HS and in the presence of 10% HS.

[4] = read-out: MCL-1 Binding Ki (nM, 10% HS), in the presence of 10% HS
[5] = without HS, read-out: MCL-1 Binding Ki

Question: Which results are given for `Cc1c(Cl)c2c(Cl)c(C)c1-c1c(C3CCC3)sc3ncnc(c13)O[C@@H](C(=O)O)Cc1cc(ccc1OCc1ccnc([C@H]3CC[C@H](OCC4COCCO4)CC3)n1)OC[C@@H](CN1CCN(C)CC1)O2` (stereo partly drawn) [Example 29, (7R,16R)-19,23-dichloro-1-cyclobutyl-10-[(2-{(1r,4r)-4-[(1,4-dioxan-2-yl)methoxy]cyclohexyl}pyrimidin-4-yl)methoxy]-20,22-dimethyl-16-[(4-methylpiperazin-1-yl)methyl]-7,8,15,16-tetrahydro-18,21-etheno-13,9-(metheno)-6,14,17-trioxa-2-thia-3,5-diazacyclononadeca[1,2,3-cd]indene-7-carboxylic acid]?
Answer: IC50 [1]: 0.000346 µM; IC50 [2]: 0.0812 nM; Ki [3, 4]: 0.55 nM; Ki [3, 5]: 0.011 nM

Question: How did the IC50 [1] turn out when `Cc1c(Cl)c2c(Cl)c(C)c1-c1c(C3CCC3)sc3ncnc(c13)O[C@@H](C(=O)O)Cc1cc(ccc1OCc1ccnc([C@H]3CC[C@H](OC[C@H]4COCCO4)CC3)n1)OC[C@@H](CN1CCN(C)CC1)O2` [Example 52, (7R,16R)-19,23-dichloro-1-cyclobutyl-10-({2-[(1R,4r)-4-{[(2R)-1,4-dioxan-2-yl]methoxy}cyclohexyl]pyrimidin-4-yl}methoxy)-20,22-dimethyl-16-[(4-methylpiperazin-1-yl)methyl]-7,8,15,16-tetrahydro-18,21-etheno-13,9-(metheno)-6,14,17-trioxa-2-thia-3,5-diazacyclononadeca[1,2,3-cd]indene-7-carboxylic acid] was run?
Answer: 0.00118 µM

Question: What about the IC50 [2] of the same compound?
Answer: 0.448 nM

Question: What about the Ki [3, 4] of the same compound?
Answer: 0.72 nM

Question: And the Ki [3, 5]?
Answer: < 0.01 nM

Question: For `Cc1c(Cl)c2c(Cl)c(C)c1-c1c(-c3ccc(F)cc3)sc3ncnc(c13)O[C@@H](C(=O)O)Cc1cc(ccc1OCc1ccnc([C@H]3CC[C@@](F)(COC[C@@H]4COCCO4)CC3)n1)OC[C@@H](CN1CCN(C)CC1)O2` [Example 46, (7R,16R)-19,23-dichloro-10-({2-[(1S,4r)-4-({[(2S)-1,4-dioxan-2-yl]methoxy}methyl)-4-fluorocyclohexyl]pyrimidin-4-yl}methoxy)-1-(4-fluorophenyl)-20,22-dimethyl-16-[(4-methylpiperazin-1-yl)methyl]-7,8,15,16-tetrahydro-18,21-etheno-13,9-(metheno)-6,14,17-trioxa-2-thia-3,5-diazacyclononadeca[1,2,3-cd]indene-7-carboxylic acid], which IC50 [1] is on record?
Answer: 0.000418 µM

Question: What about the IC50 [2] of the same compound?
Answer: 0.579 nM

Question: And the Ki [3, 4]?
Answer: 0.24 nM

Question: What about the Ki [3, 5] of the same compound?
Answer: 0.022 nM

Question: `Cc1c(Cl)c2c(Cl)c(C)c1-c1c(-c3ccc(F)cc3)sc3ncnc(c13)O[C@@H](C(=O)O)Cc1cc(ccc1OCc1ccnc(N3CCC(OC[C@H]4COCCO4)CC3)n1)OC[C@@H](CN1CCN(C)CC1)O2` [Example 10, (7R,16R)-19,23-dichloro-10-{[2-(4-{[(2R)-1,4-dioxan-2-yl]methoxy}piperidin-1-yl)pyrimidin-4-yl]methoxy}-1-(4-fluorophenyl)-20,22-dimethyl-16-[(4-methylpiperazin-1-yl)methyl]-7,8,15,16-tetrahydro-18,21-etheno-13,9-(metheno)-6,14,17-trioxa-2-thia-3,5-diazacyclononadeca[1,2,3-cd]indene-7-carboxylic acid] was tested. Which IC50 [1] did it give?
Answer: 0.00217 µM

Question: And the IC50 [2]?
Answer: 0.502 nM

Question: And the Ki [3, 4]?
Answer: 3.07 nM

Question: What about the Ki [3, 5] of the same compound?
Answer: 0.346 nM

Question: `COc1ccccc1-c1nccc(COc2ccc3cc2C[C@H](C(=O)O)Oc2ncnc4sc(C[C@H]5COCCO5)c(c24)-c2c(C)c(Cl)c(c(Cl)c2C)O[C@H](CN2CCN(C)CC2)CO3)n1` [Example 19, (7R,16R)-19,23-dichloro-1-{[(2S)-1,4-dioxan-2-yl]methyl}-10-{[2-(2-methoxyphenyl)pyrimidin-4-yl]methoxy}-20,22-dimethyl-16-[(4-methylpiperazin-1-yl)methyl]-7,8,15,16-tetrahydro-18,21-etheno-13,9-(metheno)-6,14,17-trioxa-2-thia-3,5-diazacyclononadeca[1,2,3-cd]indene-7-carboxylic acid] was tested. Which IC50 [1] did it give?
Answer: 0.0152 µM

Question: And the IC50 [2]?
Answer: 9.74 nM

Question: And the Ki [3, 4]?
Answer: 0.64 nM

Question: And the Ki [3, 5]?
Answer: 0.156 nM

Question: With `Cc1c(Cl)c2c(Cl)c(C)c1-c1c(-c3ccc(F)cc3)sc3ncnc(c13)O[C@@H](C(=O)O)Cc1cc(ccc1OCc1ccnc([C@H]3CC[C@H](OC[C@H]4COCCO4)CC3)n1)OC[C@@H](CN1CCN(C)CC1)O2` [Example 9, (7R,16R)-19,23-dichloro-10-({2-[(1R,4r)-4-{[(2R)-1,4-dioxan-2-yl]methoxy}cyclohexyl]pyrimidin-4-yl}methoxy)-1-(4-fluorophenyl)-20,22-dimethyl-16-[(4-methylpiperazin-1-yl)methyl]-7,8,15,16-tetrahydro-18,21-etheno-13,9-(metheno)-6,14,17-trioxa-2-thia-3,5-diazacyclononadeca[1,2,3-cd]indene-7-carboxylic acid] as the compound, how does the IC50 [1] read?
Answer: 0.000245 µM

Question: What about the IC50 [2] of the same compound?
Answer: 0.165 nM

Question: And the Ki [3, 4]?
Answer: 0.1 nM

Question: And the Ki [3, 5]?
Answer: 0.005 nM

Question: Which IC50 [1] does the source give for `Cc1c(Cl)c2c(Cl)c(C)c1-c1c(C3=CCCC3)sc3ncnc(c13)O[C@@H](C(=O)O)Cc1cc(ccc1OCc1ccnc(C3=CC[C@@](F)(COC[C@H]4COCCO4)CC3)n1)OC[C@@H](CN1CCN(C)CC1)O2` [Example 48, (7R,16R)-19,23-dichloro-1-(cyclopent-1-en-1-yl)-10-({2-[(4R)-4-({[(2R)-1,4-dioxan-2-yl]methoxy}methyl)-4-fluorocyclohex-1-en-1-yl]pyrimidin-4-yl}methoxy)-20,22-dimethyl-16-[(4-methylpiperazin-1-yl)methyl]-7,8,15,16-tetrahydro-18,21-etheno-13,9-(metheno)-6,14,17-trioxa-2-thia-3,5-diazacyclononadeca[1,2,3-cd]indene-7-carboxylic acid] here?
Answer: 0.000593 µM

Question: What about the IC50 [2] of the same compound?
Answer: 0.641 nM

Question: And the Ki [3, 4]?
Answer: 0.648 nM

Question: And the Ki [3, 5]?
Answer: 0.026 nM

Question: Which results are given for `Cc1c(Cl)c2c(Cl)c(C)c1-c1c(-c3ccc(F)cc3)sc3ncnc(c13)O[C@@H](C(=O)O)Cc1cc(ccc1OCc1ccnc(C3=CC[C@@](F)(COC[C@@H]4COCCO4)CC3)n1)OC[C@@H](CN1CCN(C)CC1)O2` [Example 42, (7R,16R)-19,23-dichloro-10-({2-[(4R)-4-({[(2S)-1,4-dioxan-2-yl]methoxy}methyl)-4-fluorocyclohex-1-en-1-yl]pyrimidin-4-yl}methoxy)-1-(4-fluorophenyl)-20,22-dimethyl-16-[(4-methylpiperazin-1-yl)methyl]-7,8,15,16-tetrahydro-18,21-etheno-13,9-(metheno)-6,14,17-trioxa-2-thia-3,5-diazacyclononadeca[1,2,3-cd]indene-7-carboxylic acid]?
Answer: IC50 [1]: 0.000356 µM; IC50 [2]: 0.404 nM; Ki [3, 4]: 0.24 nM; Ki [3, 5]: 0.018 nM

Question: Which IC50 [1] does the source give for `Cc1c(Cl)c2c(Cl)c(C)c1-c1c(C3=CCCC3)sc3ncnc(c13)O[C@@H](C(=O)O)Cc1cc(ccc1OCc1ccnc(C3=CC[C@@](F)(COC[C@@H]4COCCO4)CC3)n1)OC[C@@H](CN1CCN(C)CC1)O2` [Example 38, (7R,16R)-19,23-dichloro-1-(cyclopent-1-en-1-yl)-10-({2-[(4R)-4-({[(2S)-1,4-dioxan-2-yl]methoxy}methyl)-4-fluorocyclohex-1-en-1-yl]pyrimidin-4-yl}methoxy)-20,22-dimethyl-16-[(4-methylpiperazin-1-yl)methyl]-7,8,15,16-tetrahydro-18,21-etheno-13,9-(metheno)-6,14,17-trioxa-2-thia-3,5-diazacyclononadeca[1,2,3-cd]indene-7-carboxylic acid] here?
Answer: 0.000748 µM

Question: And the IC50 [2]?
Answer: 0.267 nM

Question: And the Ki [3, 4]?
Answer: 0.63 nM

Question: What about the Ki [3, 5] of the same compound?
Answer: 0.036 nM

Question: What does the source list for `COc1ccccc1-c1nccc(COc2ccc3cc2C[C@H](C(=O)O)Oc2ncnc4sc(C[C@@H]5COCCO5)c(c24)-c2c(C)c(Cl)c(c(Cl)c2C)O[C@H](CN2CCN(C)CC2)CO3)n1` [Example 18, (7R,16R)-19,23-dichloro-1-{[(2R)-1,4-dioxan-2-yl]methyl}-10-{[2-(2-methoxyphenyl)pyrimidin-4-yl]methoxy}-20,22-dimethyl-16-[(4-methylpiperazin-1-yl)methyl]-7,8,15,16-tetrahydro-18,21-etheno-13,9-(metheno)-6,14,17-trioxa-2-thia-3,5-diazacyclononadeca[1,2,3-cd]indene-7-carboxylic acid]?
Answer: IC50 [1]: 0.00995 µM; IC50 [2]: 6.12 nM; Ki [3, 4]: 0.24 nM; Ki [3, 5]: 0.111 nM

Question: For `Cc1c(Cl)c2c(Cl)c(C)c1-c1c(-c3ccc(F)cc3)sc3ncnc(c13)O[C@@H](C(=O)O)Cc1cc(ccc1OCc1ccnc([C@H]3CC[C@@H](OCC4COCCO4)CC3)n1)OC[C@@H](CN1CCN(C)CC1)O2` (stereo partly drawn) [Example 15, (7R,16R)-19,23-dichloro-10-[(2-{(1s,4s)-4-[(1,4-dioxan-2-yl)methoxy]cyclohexyl}pyrimidin-4-yl)methoxy]-1-(4-fluorophenyl)-20,22-dimethyl-16-[(4-methylpiperazin-1-yl)methyl]-7,8,15,16-tetrahydro-18,21-etheno-13,9-(metheno)-6,14,17-trioxa-2-thia-3,5-diazacyclononadeca[1,2,3-cd]indene-7-carboxylic acid], which IC50 [1] is on record?
Answer: 0.000294 µM

Question: What about the IC50 [2] of the same compound?
Answer: 0.156 nM

Question: And the Ki [3, 4]?
Answer: 0.15 nM

Question: And the Ki [3, 5]?
Answer: 0.013 nM
